According to patent US20220048915A1 (SHANGHAI PHARMACEUTICALS HOLDING CO., LTD., priority 2018, published 2022):
Several values for one entry are separate records, joined by “and”; a condition that tells them apart may be missing. Equal entries are not always repeated.

Tests used:
p38α = p38α (Homo sapiens, UniProt Q16539); assay: In vitro inhibition of p38 kinase (LANCE Ultra TR-FRET); type: biochemical; settings: read-out: Kinase in vitro IC50(nM) p38α
BV-2 cells = assay: Inhibition of inflammation in LPS-stimulated BV-2 cells (ELISA of inflammatory factors); type: cell-based; settings: Mus musculus, 100 ng/mL LPS 4 hours; for Emax: read-out: BV-2 Max Inh. (%); for IC50: read-out: BV-2 Rf IC50
Protocol: Normal cultured 8th passage BV-2 cells were taken, and inoculated separately in 96-well plates at a certain cell density. The cell culture plates were cultured at 37° C. and 5% CO2 for 24 hours.
After inoculating the plate for 24 hours, the cell culture medium was removed, and then 100 μL of a 4-fold gradient dilution compound starting from 10,000 nM prepared in DMEM+10% FBS, where High control and Low control contained 0.1% DMSO without compound. With 100 μL per well, the cell culture plate was cultured at 37° C. with 5% CO2 for one hour.
The compound-containing cultures were removed. 100 ng/mL of LPS was prepared with DMEM+10% FBS culture medium, and then the compound was diluted in a 4-fold gradient from 10,000 nM with LPS-containing culture medium. In low control, the compound was replaced with 0.1% DMSO. In High control, 0.1% DMSO was prepared with culture medium without LPS. 100 μL per well, and the cell culture plates were cultured at 37° C. with 5% CO2 for 4 hours.
After 4 hours of LPS stimulation, 110 μL of the culture solution was aspirated, and centrifuged at 2000 rpm for 2 minutes. A further 90 μl of supernatant was aspirated and immediately put into −20° C. for freezing.
ELISA kits were used to detect the expression of inflammatory factors such as IL-10, TNFα, etc. The OD450 signal values were measured by microplate reader. The in vitro inhibitory activity of the compounds was calculated according to the following formula: Inhibition rate: Inhibition rate (%)=(signal value of control−signal value of administration)/(high signal value of control−low signal value of control)×100%. And according to the inhibition rate of each concentration, Graphpad Prism 5.0 was used to curve fit the […] signal values at each concentration and calculate the corresponding IC50, which is shown in Table 1.

p38γ = target: T1, p38γ (Homo sapiens, UniProt P53778); assay: In vitro inhibition of p38 kinase (LANCE Ultra TR-FRET); type: biochemical; settings: read-out: Kinase in vitro IC50(nM) p38γ
T1 sequence (P53778 1-367): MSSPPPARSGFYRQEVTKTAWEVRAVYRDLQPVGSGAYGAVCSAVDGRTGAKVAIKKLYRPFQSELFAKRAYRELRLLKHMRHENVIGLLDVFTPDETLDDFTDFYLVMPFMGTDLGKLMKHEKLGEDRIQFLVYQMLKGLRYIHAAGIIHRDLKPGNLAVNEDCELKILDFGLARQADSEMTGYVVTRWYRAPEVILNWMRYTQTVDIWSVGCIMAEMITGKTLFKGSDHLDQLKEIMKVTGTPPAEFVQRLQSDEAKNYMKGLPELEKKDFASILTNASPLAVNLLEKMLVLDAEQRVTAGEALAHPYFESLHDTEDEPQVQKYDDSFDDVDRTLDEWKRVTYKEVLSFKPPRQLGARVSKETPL
Protocol: 10 mM of the storage solution of the test compound was taken and placed in a 96-well compound plate, and using DMSO for the compound at an initial concentration of 100×, which was then used as the first concentration and then carried out a 3-fold gradient dilution with DMSO for a total of 10 concentrations. After that, 1 μL of gradient dilutions were added to 19 μL of 1× reaction buffer to prepare 5× compound for later use. […] To the compound-free control well was added 2 μL of the following liquid: 19 μL of 1× reaction buffer with addition of 1 μL of DMSO. To the Min control well was added 2 μL of 250 mM EDTA.
1× of LANCE® Detection value Buffer was used to prepare a 2×Antibody for use, and the amount was 5 μL per well, at the same time 10 mM EDTA was prepared for later use. After the enzyme reaction was carried out for 30 minutes, 5 μL 10 mM EDTA was added to the 384-well plate and the reaction was carried out at room temperature for 5 minutes. Afterwards, 5 μL LANCE® Ultra Europium-anti-phospho-eIF4E-binding protein 1 (Thr37/46) was added to the 384-well plate and the reaction was carried out at room temperature for one hour.

p38β = p38β (Homo sapiens, UniProt Q15759); assay: as above; type: biochemical; settings: read-out: Kinase in vitro IC50(nM) p38β
[1] = Pharmacokinetic properties in mice; type: in vivo, ICR mice; settings: for absorption compared with the positive compound VX-745 at the same dose: 10 mg/kg; for Cmax / MRT / Tmax / AUClast (po): po 10 mg/kg; for BA: po 10 mg/kg vs iv 3 mg/kg; for AUClast (po): 5-1440 minutes
Protocol: Forty-eight male ICR mice, weighing 18-22 g (provided by Shanghai Xipuerbikai Laboratory Animal Co., Ltd, Certificate No.: 20130016008116). The mice were […] for 12-16 hours before the experiment but water was allowed.
Blood samples were collected from the fundus vein of mice before and at 2, 5, 15, 30, 60, 90, 120, 240, 480, 600, and 1440 minutes of the administration, respectively.
Blood samples were collected from the fundus vein of mice before and at 5, 15, 30, 60, 90, 120, 240, 480 and 1440 minutes of administration, respectively.
2-3 time points were taken for each mouse. The mice were sacrificed at 5, 15, 30, 60 and 1440 minutes after the administration (3 mice per time point), and the brains were taken, rinsed with saline, dried on filter paper and weighed.
(§1) Blood samples were centrifuged at 8000 rpm for 5 minutes, and supernatant plasma was taken. To 50 μL of plasma samples was added 300 μL of acetonitrile containing internal standard (propranolol, 25 ng/mL) to precipitate the protein. After vortexing for 10 minutes and centrifuging at 6000 g and 4° C. for 10 minutes, the supernatant was taken and placed in a 96-well plate for determination of drug concentration in plasma by UPLC/MS-MS.

[2] = Pharmacokinetic properties in rats; type: in vivo, SD rats; settings: for Cmax / MRT / Tmax / AUClast (po): po 6 mg/kg; for BA: po 6 mg/kg vs iv 3 mg/kg; for AUClast (po): 5-1440 minutes; for absorption compared with the positive compound VX-745 at the same dose: rats, 6 mg/kg
Protocol: Ten male SD rats, weighing 180-220 g (provided by Shanghai Xipuerbikai Laboratory Animal Co., Ltd, Certificate No.: 20130016008116). The rats were fasted for feed for 12-16 hours before the experiment but water was allowed.
Blood samples were collected from the fundus vein of rats before and at 2, 5, 15, 30, 60, 90, 120, 240, 360, 480, 600 and 1440 minutes after administration, respectively.
Blood samples were collected from the fundus vein of rats before and at 5, 15, 30, 60, 90, 120, 240, 360, 480, 600, 1440 minutes after administration respectively.
as §1

TNF-α = assay: Lipopolysaccharide (LPS)-induced inflammation model in mice, TNF-α in serum by ELISA; type: in vivo, C57BL/6J mice
Protocol: Male SPF-grade C57BL/6J mice, 6-8 weeks old, provided by Shanghai Ling Chang Biotechnology Co., Ltd. Animals were housed in clean-grade plastic cages (light and dark cycle 12/12 hours, temperature 22±2° C., humidity 50±10%, pellet feed, free drinking water).
1. Mice were weighed and administered according to an administration volume of 10 mL/kg, and oral administration by gavage was given for the first time. Each mouse was administrated at an interval of 3 minutes.
2. One hour after the first administration, LPS 5 mpk was administered intraperitoneally at an administration volume of 10 mL/kg.
3. 4 hours after the first administration, a second oral administration by gavage was given according to the administration volume of 10 mL/kg.
4. 6 hours after LPS intraperitoneal injection, mice were sacrificed, serum and cerebral cortex and hippocampus were sampled. After weighing the wet weight and they were put into liquid nitrogen for quick-freezing and storage.

p38 kinase = settings: CN108349964A, Table 7 on page 74; read-out: IC50 grade for the inhibitory activity of p38 kinase; cited from earlier work

Sequence of p38α (Q16539 whole entry): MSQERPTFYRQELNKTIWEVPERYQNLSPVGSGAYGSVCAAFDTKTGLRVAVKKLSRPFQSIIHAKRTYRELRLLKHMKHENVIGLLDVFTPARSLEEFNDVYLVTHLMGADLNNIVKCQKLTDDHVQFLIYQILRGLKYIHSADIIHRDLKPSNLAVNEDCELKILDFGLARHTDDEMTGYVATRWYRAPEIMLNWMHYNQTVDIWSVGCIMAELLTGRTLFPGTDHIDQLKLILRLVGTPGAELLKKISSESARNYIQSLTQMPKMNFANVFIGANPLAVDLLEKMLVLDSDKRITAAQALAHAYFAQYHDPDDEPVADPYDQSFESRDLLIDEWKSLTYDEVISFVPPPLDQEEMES
Sequence of p38β (Q15759 whole entry): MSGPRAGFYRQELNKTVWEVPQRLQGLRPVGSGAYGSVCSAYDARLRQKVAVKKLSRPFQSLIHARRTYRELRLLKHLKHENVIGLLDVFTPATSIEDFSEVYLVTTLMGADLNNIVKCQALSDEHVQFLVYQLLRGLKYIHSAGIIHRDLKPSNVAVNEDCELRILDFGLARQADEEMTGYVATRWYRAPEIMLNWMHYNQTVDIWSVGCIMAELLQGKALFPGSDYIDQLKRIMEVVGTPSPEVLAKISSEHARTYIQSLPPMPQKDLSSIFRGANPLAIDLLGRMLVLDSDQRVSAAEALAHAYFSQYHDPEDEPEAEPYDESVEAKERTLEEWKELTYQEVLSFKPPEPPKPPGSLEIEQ

O=c1ncn2nc(Oc3ccc(F)cc3F)ccc2c1-c1c(F)cccc1Cl [Compound I-62, 5-(2-chloro-6-fluorophenyl)-2-(2,4-difluorophenoxy)-6H-pyrimido[1,6-b]pyridazin-6-one]
IC50 (p38α): 12.1 nM
Emax (BV-2 cells): 48.6%
IC50 (BV-2 cells): 14.2 nM
IC50 (p38γ): > 3330 nM
IC50 (p38β): 101 nM
absorption compared with the positive compound VX-745 at the same dose [1]: better
Thalf (iv) ([1]; iv 3 mg/kg): 3.32 h
Cmax ([1]; male, ICR, mouse, plasma): 1600 ng/mL
MRT ([1]; male, ICR, mouse, plasma): 3.18 h
Tmax ([1]; male, ICR, mouse, plasma): 1 h
BA [1]: 103.4%
AUClast (po) [1]: 4522 (h)*(ng/mL)

O=c1ncn2nc(Sc3ccc(F)cc3F)ccc2c1-c1c(Cl)cccc1Cl [VX-745, reference compound]
clearance ([2]; male, SD, plasma, rat, iv 3 mg/kg): 25 mL/min/kg
Vd ([2]; male, SD, plasma, rat, iv 3 mg/kg, read-out: Vss (iv)): 4.5 L/kg
Cmax ([2]; male, SD, plasma, rat): 476 ng/mL
MRT ([2]; male, SD, plasma, rat): 4.3 h
Tmax ([2]; male, SD, plasma, rat): 0.8 h
Thalf (iv) ([2]; rat, iv 3 mg/kg): 5.2 h
BA ([2]; rat): 41.2%
AUClast (po) ([2]; rat): 1644.5 (h)*(ng/mL)
levels of TNF-α compared with the mouse inflammation model group (G2) (TNF-α; 8 mpk, P<0.01): significantly reduced
TNF-α conc. (TNF-α; serum, individual animals, 8 mg/kg po bid interval 4 h, 6 hours after LPS 5 mpk ip): 142.0 pg/mL and 151.7 pg/mL and 105.5 pg/mL and 155.5 pg/mL and 55.4 pg/mL and 105.7 pg/mL and 54.3 pg/mL and 71.2 pg/mL and 24.0 pg/mL and 155.2 pg/mL
Emax (BV-2 cells): 99.7%
IC50 (BV-2 cells): 4.26 nM
Thalf (iv) ([1]; iv 3 mg/kg): 3.9 h
clearance ([1]; male, ICR, mouse, plasma, iv 3 mg/kg): 18.3 mL/min/kg
Vd ([1]; male, ICR, mouse, plasma, iv 3 mg/kg, read-out: Vss (iv)): 2.3 L/kg
Cmax ([1]; male, ICR, mouse, plasma): 750 ng/mL
MRT ([1]; male, ICR, mouse, plasma): 3.2 h
Tmax ([1]; male, ICR, mouse, plasma): 0.8 h
BA [1]: 20.2%
AUClast (po) [1]: 1844 (h)*(ng/mL)

O=c1ncn2nc(Sc3ccc(F)cc3)ccc2c1-c1c(Cl)cccc1Cl [compound 12]
IC50 (p38 kinase): 100 to 1000 nM

O=c1ncn2nc(Oc3ccc(F)cc3)ccc2c1-c1c(Cl)cccc1Cl [Compound I-19, 5-(2,6-dichlorophenyl)-2-(4-fluorophenoxy)-6H-pyrimido[1,6-b]pyridazin-6-one]
IC50 (p38α): 22.4 nM
Cmax ([2]; male, SD, plasma, rat): 1090 ng/mL
MRT ([2]; male, SD, plasma, rat): 5.73 h
Tmax ([2]; male, SD, plasma, rat): 3 h
Thalf (iv) ([2]; rat, iv 3 mg/kg): 2.81 h
BA ([2]; rat): 87.87%
AUClast (po) ([2]; rat): 7172 (h)*(ng/mL)
absorption compared with the positive compound VX-745 at the same dose [2]: significantly higher
Emax (BV-2 cells): 61.7%
IC50 (BV-2 cells): 53.8 nM
IC50 (p38γ): > 3330 nM
IC50 (p38β): 391 nM
absorption compared with the positive compound VX-745 at the same dose [1]: significantly higher
Thalf (iv) ([1]; iv 3 mg/kg): 3.73 h
Cmax ([1]; male, ICR, mouse, plasma): 1820 ng/mL
MRT ([1]; male, ICR, mouse, plasma): 5.55 h
Tmax ([1]; male, ICR, mouse, plasma): 1.33 h
BA [1]: 158.7%
AUClast (po) [1]: 11457 (h)*(ng/mL)

O=c1ncn2nc(Oc3cc(F)c(F)cc3F)ccc2c1-c1c(Cl)cccc1Cl [Compound I-43]
IC50 (p38α): 10.7 nM
Cmax ([2]; male, SD, plasma, rat): 601 ng/mL
MRT ([2]; male, SD, plasma, rat): 4.7 h
Tmax ([2]; male, SD, plasma, rat): 4 h
Thalf (iv) ([2]; rat, iv 3 mg/kg): 3.7 h
BA ([2]; rat): 123.3%
AUClast (po) ([2]; rat): 2994 (h)*(ng/mL)
absorption compared with the positive compound VX-745 at the same dose [2]: better
Emax (BV-2 cells): 50.9%
IC50 (BV-2 cells): 21.5 nM
IC50 (p38γ): > 3330 nM
IC50 (p38β): 95.1 nM
absorption compared with the positive compound VX-745 at the same dose [1]: better
Thalf (iv) ([1]; iv 3 mg/kg): 2.97 h
Cmax ([1]; male, ICR, mouse, plasma): 1280 ng/mL
MRT ([1]; male, ICR, mouse, plasma): 4.34 h
Tmax ([1]; male, ICR, mouse, plasma): 2 h
BA [1]: 89.17%
AUClast (po) [1]: 6540 (h)*(ng/mL)

O=c1ncn2nc(Oc3ccc(F)cc3Cl)ccc2c1-c1c(Cl)cccc1Cl [Compound I-18, 2-(2-chloro-4-fluorophenoxy)-5-(2,6-dichlorophenyl)-6H-pyrimido[1,6-b]pyridazin-6-one]
IC50 (p38α): 14.8 nM
Emax (BV-2 cells): 50.6%
IC50 (BV-2 cells): 8.58 nM
IC50 (p38γ): > 3330 nM
IC50 (p38β): 97.1 nM

O=c1ncn2nc(Oc3ccc(Cl)cc3Br)ccc2c1-c1c(Cl)cccc1Cl [Compound I-15, 2-(2-bromo-4-chlorophenoxy)-5-(2,6-dichlorophenyl)-6H-pyrimido[1,6-b]pyridazin-6-one]
IC50 (p38α): 41.3 nM
Emax (BV-2 cells): 46%
IC50 (BV-2 cells): 132 nM
IC50 (p38γ): > 3330 nM
IC50 (p38β): 263 nM

O=c1ncn2nc(Oc3cccc(Cl)c3Cl)ccc2c1-c1c(Cl)cccc1Cl [Compound I-12, 2-(2,3-dichlorophenoxy)-5-(2,6-dichlorophenyl)-6H-pyrimido[1,6-b]pyridazin-6-one]
IC50 (p38α): 32.8 nM
Emax (BV-2 cells): 49.5%
IC50 (BV-2 cells): 176 nM
IC50 (p38γ): > 3330 nM
IC50 (p38β): 302 nM
